ChEMBL document CHEMBL5329193, “Targeting Mycobacterium tuberculosis iron-scavenging tools: a recent update on siderophores inhibitors” (RSC Med Chem, 2023)
≈ marks a conversion by molar mass, not a printed value.

Test system: Mycobacterium tuberculosis
Experiment: Antitubercular activity against Multi-drug resistant Mycobacterium tuberculosis assessed as inhibition of bacterial growth incubated for 14 days by microplate alamar blue assay
Assay type: functional
Conditions: 336 h, time 14 day

CCCCCCCCCCCCCCCCC(=O)N(O)CCCC[C@H](NC(=O)[C@@H]1COC(c2ccccc2O)=N1)C(=O)NC[C@H](CC(=O)CCCO[C@H]1O[C@@H]2O[C@@]3(C)CC[C@H]4[C@H](C)CC[C@@H]([C@H]1C)[C@@]24OO3)C(=O)N[C@H]1CCCCN(O)C1=O
MIC: 0.16 µg/mL (≈ 0.137 µM)
